According to patent EP3117212B1, “METHOD OF STUDYING ABCG2 PROTEIN ACTIVITY AND USE OF 2-AMINOETHYL DIPHENYLBORINATE” (Uniwersytet Lodzki, priority 2014, dated 2015):
Substitutions are numbered along the chain they refer to.

How the values were obtained:
Format in all cases: cell-based
[1] = target: T1, human ABCG2 protein (Homo sapiens, UniProt Q9UNQ0); experiment: Polyphenol accumulation in SB MDCKII-BCRP cells with/without Ko143, APB conjugate fluorescence (substrate verification); settings: 20 µM compound; for transport substrate for the ABCG2 protein: 1 h, 37°C, with/without 10 µM Ko143, significantly higher fluorescence with Ko143; for transport capacity: relative difference between fluorescence values with/without 10 µM Ko143
T1 construct: host or cells: MDCKII (SB MDCKII-BCRP cell line)
T1 sequence (Q9UNQ0 1-655): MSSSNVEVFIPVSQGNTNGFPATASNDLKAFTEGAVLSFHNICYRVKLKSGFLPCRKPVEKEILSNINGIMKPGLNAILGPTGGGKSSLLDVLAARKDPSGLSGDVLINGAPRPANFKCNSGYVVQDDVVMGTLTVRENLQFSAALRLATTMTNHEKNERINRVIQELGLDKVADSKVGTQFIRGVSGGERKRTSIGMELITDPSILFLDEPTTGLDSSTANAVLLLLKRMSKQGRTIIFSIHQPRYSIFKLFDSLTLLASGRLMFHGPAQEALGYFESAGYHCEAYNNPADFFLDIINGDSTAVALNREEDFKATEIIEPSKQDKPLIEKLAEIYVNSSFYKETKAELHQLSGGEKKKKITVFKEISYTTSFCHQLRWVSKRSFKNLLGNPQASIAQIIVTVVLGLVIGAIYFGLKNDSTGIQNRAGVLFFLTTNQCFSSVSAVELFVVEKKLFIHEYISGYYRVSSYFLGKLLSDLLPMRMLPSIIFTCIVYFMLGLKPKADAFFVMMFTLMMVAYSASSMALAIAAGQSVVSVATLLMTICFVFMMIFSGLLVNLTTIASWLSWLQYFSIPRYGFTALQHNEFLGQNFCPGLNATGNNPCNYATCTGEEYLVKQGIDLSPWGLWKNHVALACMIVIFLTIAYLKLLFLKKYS
Text: The results are shown on Fig. 1. […] The relative difference between the fluorescence values leads to the conclusion that transport capacity is the highest for compounds 9, 3 and 1 and the lowest for compounds 2 and 6.
On Figure 1 fluorescence of the conjugates of APB and polyphenolic compounds is shown for the cell lysates (mean ± the standard error of the mean, n=5; statistically significant differences at the significance level <0.05 are marked with * symbol).

[2] = target: T2, ABCG2 R482K (Homo sapiens, UniProt Q9UNQ0, R482K); experiment: Luteolin transport in transfected HeLa cells with/without Ko143, APB conjugate fluorescence; settings: R482K variant in HeLa cells; 10 µM luteolin, 0 or 10 µM Ko143, 1 h
T2 construct: expressed in transfected cells; host or cells: HeLa, transient transfection (FuGene HD), pcDNA6.2/V5 vector
T2 sequence (Q9UNQ0 1-655 R482K): T1 sequence (Q9UNQ0 1-655) with R482K
Protocol: (§1) A plasmid expression vector for the ABCG2 protein was prepared using standard molecular biology techniques. The vector was obtained by cloning of a sequence encoding human ABCG2 and (as an N-terminal fusion protein within the same open reading frame) a sequence encoding TagGFP2 fluorescent protein (obtained from the pTagGFP2-C plasmid produced by Evrogen, cat. no. FP191) into the pcDNA6.2/V5 plasmid. Subsequently, a series of expression vectors for sequential variants of the ABCG2 protein were prepared by performing site-directed mutagenesis in the codons coding particular amino acids in this sequence. For this purpose the Quickchange Lightning kit for site-directed mutagenesis manufactered by AgilentStratagene (cat. no. 210513) was used, in full compliance with the manufacturer's instructions. In this way, the vectors encoding the following sequential variants of the ABCG2 protein were obtained (letters denote the standard IUPAC codes for amino acid residues changed with regard to the wild-type sequence, the number denotes the position of the amino acid residue in the polypeptide chain from the N-terminus of the protein): R482G,R482K, K86M.
(§2) 72 hours before the experiment, the cells were chemically transfected with the above mentioned plasmids using the FuGene HD reagent (product from Promega, cat. no. E2311). The transfection mixture contained 150 µl of OptiMEM culture medium (product from Life Technologies, cat. no. 31985070), 3.3 µg of plasmid DNA and 9.9 µl of Fugene HD. The mixture was vortexed, incubated for 5 minutes and added to 2 ml of medium and the cells on the 6-well plate. 24 hours before the experiment, the cells were plated on a standard black 96-well polystyrene microplate with surface modified for cell culture (product from Thermo Scientific Nunc cat. no. 137101) with 50,000 cells per well in standard DMEM culture medium (product from LifeTechnologies cat. no. 32430) supplemented with 10% fetal bovine serum. […] The cells were then incubated for 1 h in a standard incubator for in vitro cell culture in temperature of 37°C. The incubation was followed by removing the medium and the cells were washed twice with portions of 50 µl of buffered saline (PBS, product from Life Technologies cat. no. 10010) in temperature of 4°C. Then the cells were lysed (solubilized) in 100 µl of PBS with the following additives: 0.5% (v/v) Triton X-100 surfactant (product from Sigma Aldrich, cat. no. T8787) and 0.25 mg/ml 2-aminoethyl-diphenylborinate (APB, CAS no. 208-366-5, product from Sigma Aldrich, cat. no. D9754). The compound APB was added to the PBS solution from a stock solution in DMSO with a concentration of 250 mg/ml permanently stored in temperature of -20°C. The cells were lysed by shaking the microplate in room temperature for 5 minutes.

[3] = target: T3, ABCG2 wild-type (Homo sapiens, UniProt Q9UNQ0); experiment: as above; settings: 10 µM luteolin, 0 or 10 µM Ko143, 1 h
T3 construct: expressed in transfected cells; host or cells: HeLa, transient transfection (FuGene HD), pcDNA6.2/V5 vector
T3 sequence (Q9UNQ0 1-655): T1 sequence (Q9UNQ0 1-655)
Protocol: as §1, §2

[4] = target: T4, ABCG2 K86M (Homo sapiens, UniProt Q9UNQ0, K86M); experiment: as above; settings: K86M variant in HeLa cells; 10 µM luteolin, 0 or 10 µM Ko143, 1 h
T4 construct: expressed in transfected cells; host or cells: HeLa, transient transfection (FuGene HD), pcDNA6.2/V5 vector
T4 sequence (Q9UNQ0 1-655 K86M): T1 sequence (Q9UNQ0 1-655) with K86M
Protocol: as §1, §2

[5] = target: T5, ABCG2 R482G (Homo sapiens, UniProt Q9UNQ0, R482G); experiment: as above; settings: R482G variant in HeLa cells; 10 µM luteolin, 0 or 10 µM Ko143, 1 h
T5 construct: expressed in transfected cells; host or cells: HeLa, transient transfection (FuGene HD), pcDNA6.2/V5 vector
T5 sequence (Q9UNQ0 1-655 R482G): T1 sequence (Q9UNQ0 1-655) with R482G
Protocol: as §1, §2

| Compound | transport substrate for the ABCG2 protein [1] | transport capacity [1] | transport activity towards luteolin [3] | transport activity towards luteolin [4] | transport activity towards luteolin [5] | transport activity towards luteolin [2] |
| --- | --- | --- | --- | --- | --- | --- |
| O=c1cc(-c2ccc(O)c(O)c2)oc2cc(O)cc(O)c12 [Compound 3, luteolin] | ABCG2 protein substrates | highest | similar, maximum transport activity | did not show any transport activity | similar, maximum transport activity | slightly decreased in relation to the wild-type |
| O=c1c(O)c(-c2ccc(O)c(O)c2)oc2cc(O)cc(O)c12 [Compound 1, quercetin] | ABCG2 protein substrates | highest |  |  |  |  |
| O=c1c(O)c(-c2ccc(O)cc2)oc2cc(O)cc(O)c12 [Compound 2, kaempferol] | ABCG2 protein substrates | lowest |  |  |  |  |

More lines, main results first:

| transport substrate for the ABCG2 protein [1] | transport capacity [1] | transport activity towards luteolin [3] | transport activity towards luteolin [4] | transport activity towards luteolin [5] | Compound | transport activity towards luteolin [2] |
| --- | --- | --- | --- | --- | --- | --- |
| ABCG2 protein substrates | highest |  |  |  | COc1ccc(OC)c(-c2oc3ccccc3c(=O)c2O)c1 [Compound 9, 2',5'-dimethoxy-3-hydroxyflavone] |  |
| ABCG2 protein substrates |  |  |  |  | O=c1c(O)c(-c2ccc(O)c(O)c2)oc2cc(O)ccc12 [Compound 4, fisetin] |  |
| ABCG2 protein substrates | lowest |  |  |  | COc1ccc2oc(-c3ccc(OC)c(OC)c3)c(O)c(=O)c2c1 [Compound 6, 6,3',4'-trimethoxy-3-hydroxyflavone] |  |
